Measured values taken from article PMC7470779 (Acta Pharmacologica Sinica, 2019).
Blank lines part the entries; values can stand above or below the molecule they belong to.

Legend:
[1] = Cumulative urinary excretion of acyclovir in rats; settings: acyclovir alone 30 mg/kg iv
[2] = in vivo; settings: Sprague-Dawley, rat, iv, 30 mg/kg, AUC0-∞
[3] = target: T1, human transporter MRP2 (Homo sapiens, UniProt Q92887); experiment: Transcellular transport of acyclovir in MRP2-MDCK cells; format: in vitro ADME; settings: acyclovir 10 μmol/L, TER 10 μmol/L, MK571 20 μmol/L
[4] = target: T2, human OAT1 (Homo sapiens, UniProt Q4U2R8); experiment: Acyclovir uptake in hOAT1-HEK293 cells; format: cell-based
T2 sequence (Q4U2R8 1-550 isoform Q4U2R8-2): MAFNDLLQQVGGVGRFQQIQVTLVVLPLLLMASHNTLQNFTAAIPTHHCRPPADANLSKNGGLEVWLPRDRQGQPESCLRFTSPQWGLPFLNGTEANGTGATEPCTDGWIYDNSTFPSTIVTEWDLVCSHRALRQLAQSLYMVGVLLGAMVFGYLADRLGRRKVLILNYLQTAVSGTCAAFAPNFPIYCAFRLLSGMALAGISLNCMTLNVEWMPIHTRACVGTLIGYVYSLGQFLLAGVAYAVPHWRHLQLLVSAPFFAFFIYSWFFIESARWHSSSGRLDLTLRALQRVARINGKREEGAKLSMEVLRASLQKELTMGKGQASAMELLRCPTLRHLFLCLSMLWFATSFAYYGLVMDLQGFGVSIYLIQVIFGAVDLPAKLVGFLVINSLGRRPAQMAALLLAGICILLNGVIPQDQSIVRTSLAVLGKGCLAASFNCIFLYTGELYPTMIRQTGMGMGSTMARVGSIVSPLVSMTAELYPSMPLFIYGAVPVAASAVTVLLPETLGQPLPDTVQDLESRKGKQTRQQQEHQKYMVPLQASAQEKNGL

[5] = target: T3, human OAT3 (Homo sapiens, UniProt Q8TCC7); experiment: Inhibition of 6-CF uptake in hOAT3-HEK293 cells; format: cell-based
T3 sequence (Q8TCC7 1-542): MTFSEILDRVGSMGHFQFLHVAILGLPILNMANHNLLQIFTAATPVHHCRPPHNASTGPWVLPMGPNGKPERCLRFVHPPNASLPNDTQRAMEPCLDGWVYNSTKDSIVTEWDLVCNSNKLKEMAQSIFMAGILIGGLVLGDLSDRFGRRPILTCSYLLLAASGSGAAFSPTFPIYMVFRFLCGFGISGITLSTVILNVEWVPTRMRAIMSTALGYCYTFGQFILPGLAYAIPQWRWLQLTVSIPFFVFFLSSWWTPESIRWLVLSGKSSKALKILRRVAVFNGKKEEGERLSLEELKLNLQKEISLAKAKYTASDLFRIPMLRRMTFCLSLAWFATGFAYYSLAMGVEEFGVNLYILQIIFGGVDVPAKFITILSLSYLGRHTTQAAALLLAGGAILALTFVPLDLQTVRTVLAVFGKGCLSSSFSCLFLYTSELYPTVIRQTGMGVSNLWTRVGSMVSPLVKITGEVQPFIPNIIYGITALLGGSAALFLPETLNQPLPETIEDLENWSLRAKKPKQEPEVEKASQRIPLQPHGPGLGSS

[6] = target: T2, human OAT1; experiment: Inhibition of 6-CF uptake in hOAT1-HEK293 cells; format: cell-based
[7] = target: T3, human OAT3; experiment: Acyclovir uptake in hOAT3-HEK293 cells; format: cell-based
[8] = cited from earlier work
[9] = target: T2, human OAT1; experiment: TER cellular uptake in hOAT1-HEK293 cells; format: in vitro ADME; settings: TER 20 μmol/L, 20 min, with or without probenecid 200 μmol/L
[10] = target: T3, human OAT3; experiment: TER cellular uptake in hOAT3-HEK293 cells; format: in vitro ADME; settings: TER 20 μmol/L, 20 min, with or without probenecid 200 μmol/L
[11] = target: T1, human transporter MRP2; experiment: Accumulation of acyclovir in MRP2-MDCK cells; format: cell-based
[12] = Sprague-Dawley, rat, plasma, intraperitoneal

- 24-h cumulative urinary excretion of acyclovir (% of the dose recovered) [1]: 78.4%
- AUC(0-inf) [2]: 30600 ± 4530 ng·h/mL
- AUC(0-inf) ([2]; rats, acyclovir 30 mg/kg iv, acyclovir alone): 25800 ± 3020 ng·h/mL
Compound: Nc1nc2c(ncn2COCCO)c(=O)[nH]1 [acyclovir]

- effect on the plasma concentration and plasma clearance of acyclovir (rats, coadministration): no effect
- ER value of acyclovir reduced to, in the presence of inhibitor [3]: 1.46
Compound: CN(C)C(=O)CCSC(SCCC(=O)O)c1cccc(/C=C/c2ccc3ccc(Cl)cc3n2)c1 (centres unmarked) [MK571]

- IC50 [5]: 4.1 µM
- inhibitory effect on OAT1 (6-CF uptake) ([6]; hOAT1-HEK293 cells, LEF 1–100 μmol/L): no significant inhibitory effect
- effect on OAT3-mediated acyclovir transport (uptake) [7]: inhibited
Compound: Cc1oncc1C(=O)Nc1ccc(C(F)(F)F)cc1 [LEF, leflunomide]
- effect on OAT1-mediated acyclovir transport (uptake) [4]: only inhibited OAT3-mediated acyclovir transport

- effect on OAT1-mediated acyclovir transport (uptake) [4]: significantly inhibited
- mean plasma concentration of TER [12]: 25900 to 37800 ng/mL
- time at which peak plasma concentration of TER was reached [12]: 2 h
- ER value of acyclovir reduced to, in the presence of inhibitor [3]: 1.46
- substrate of OAT1 [9]: not a substrate
- substrate of OAT3 [10]: not a substrate
- IC50 [5]: 0.87 µM
- IC50 [11]: 4.91 µM
- IC50 [6]: 3.39 µM
- effect on OAT3-mediated acyclovir transport (uptake) [7]: significantly inhibited
Compound: C/C(O)=C(\C#N)C(=O)Nc1ccc(C(F)(F)F)cc1 [TER, teriflunomide]
- half-life of TER in the plasma [8]: approximately two weeks
